Patent US8067042B1 (Mutual Pharmaceutical Company, Inc., priority 2007, dated 2011)
“And” between values parts separate entries of the source, which are not always exact repeats. Equal entries are not always repeated. Where two headings read alike, the source gives them in different places.

Tests used:
[1] = biological target: T1, CYP2A6 (Homo sapiens, UniProt P11509); conditions: 10 μM Tranylcypromine
T1 sequence (P11509 1-494): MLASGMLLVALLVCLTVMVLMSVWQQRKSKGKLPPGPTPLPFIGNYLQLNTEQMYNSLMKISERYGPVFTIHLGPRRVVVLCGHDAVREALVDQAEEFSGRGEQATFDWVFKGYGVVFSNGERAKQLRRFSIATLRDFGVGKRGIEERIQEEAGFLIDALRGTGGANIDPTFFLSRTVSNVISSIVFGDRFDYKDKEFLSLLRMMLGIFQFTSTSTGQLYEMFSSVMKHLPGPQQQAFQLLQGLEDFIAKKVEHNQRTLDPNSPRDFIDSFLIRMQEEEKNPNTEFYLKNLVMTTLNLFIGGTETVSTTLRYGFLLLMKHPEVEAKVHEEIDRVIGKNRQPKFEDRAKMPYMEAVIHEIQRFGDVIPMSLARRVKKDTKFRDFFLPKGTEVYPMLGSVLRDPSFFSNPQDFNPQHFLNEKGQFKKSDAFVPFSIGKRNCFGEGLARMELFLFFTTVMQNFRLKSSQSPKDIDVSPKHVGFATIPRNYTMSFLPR

[2] = biological target: T2, CYP2E1 (Homo sapiens, UniProt P05181); conditions: 60 min, 100 μM, pH 7.4
T2 sequence (P05181 whole entry): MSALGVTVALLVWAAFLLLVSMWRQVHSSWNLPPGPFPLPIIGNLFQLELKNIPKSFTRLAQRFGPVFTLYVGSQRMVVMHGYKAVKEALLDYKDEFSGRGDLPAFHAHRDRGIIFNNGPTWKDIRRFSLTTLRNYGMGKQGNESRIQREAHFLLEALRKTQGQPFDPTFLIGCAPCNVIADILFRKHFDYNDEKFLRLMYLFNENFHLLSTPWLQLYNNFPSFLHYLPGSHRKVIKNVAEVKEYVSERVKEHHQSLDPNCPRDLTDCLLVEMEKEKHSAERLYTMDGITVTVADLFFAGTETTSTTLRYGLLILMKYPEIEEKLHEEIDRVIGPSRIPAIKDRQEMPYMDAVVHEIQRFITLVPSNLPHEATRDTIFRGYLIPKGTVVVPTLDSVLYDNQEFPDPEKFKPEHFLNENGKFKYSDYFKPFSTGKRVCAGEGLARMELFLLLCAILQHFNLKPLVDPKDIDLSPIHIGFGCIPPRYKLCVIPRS

[3] = tested on: CYP2E1; type: in vitro ADME; conditions: 50 μM megestrol acetate (Parent)
[4] = biological target: T1, CYP2A6; type: in vitro ADME; parameters: purchased BD Biosciences Discovery Labware, Woburn, Mass; host or cells: baculovirus-infected insect cells; conditions: LC/MS; 50 μM megestrol acetate (Parent), 20 pmol Human CYP2A6 + P450 Reductase + Cytochrome b5 SUPERSOMES
[5] = biological target: T2, CYP2E1; type: in vitro ADME; parameters: purchased BD Biosciences Discovery Labware, Woburn, Mass; host or cells: baculovirus-infected insect cells; conditions: LC/MS; 50 μM megestrol acetate (Parent), 20 pmol Human CYP2E1 + P450 Reductase + Cytochrome b5 SUPERSOMES
[6] = biological target: T3, CYP2B6 (Homo sapiens, UniProt P20813); type: in vitro ADME; parameters: purchased BD Biosciences Discovery Labware, Woburn, Mass; host or cells: baculovirus-infected insect cells; conditions: LC/MS; 50 μM megestrol acetate (Parent), 20 pmol Human CYP2B6 + P450 Reductase + Cytochrome b5 SUPERSOMES
T3 sequence (P20813 1-491): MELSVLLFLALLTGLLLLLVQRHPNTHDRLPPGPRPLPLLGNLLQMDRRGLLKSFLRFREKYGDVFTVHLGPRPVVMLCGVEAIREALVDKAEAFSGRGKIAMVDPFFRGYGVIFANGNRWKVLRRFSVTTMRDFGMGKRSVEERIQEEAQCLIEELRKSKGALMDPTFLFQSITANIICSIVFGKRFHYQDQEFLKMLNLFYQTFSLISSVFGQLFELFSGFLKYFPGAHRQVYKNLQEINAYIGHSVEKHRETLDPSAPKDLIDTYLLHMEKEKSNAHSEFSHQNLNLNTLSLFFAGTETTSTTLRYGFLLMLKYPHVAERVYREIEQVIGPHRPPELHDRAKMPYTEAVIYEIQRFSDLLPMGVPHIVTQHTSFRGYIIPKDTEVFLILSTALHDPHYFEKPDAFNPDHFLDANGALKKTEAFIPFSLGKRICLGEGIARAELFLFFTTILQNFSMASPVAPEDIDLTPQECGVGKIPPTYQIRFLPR

[7] = biological target: T3, CYP2B6; conditions: 50 μM megestrol acetate (Parent), 0.5 mg/mL pooled human liver microsomes with 1% methanol (no inhibitor)
[8] = tested on: CYP2C8; type: in vitro ADME; conditions: 50 μM megestrol acetate (Parent)
[9] = tested on: CYP2A6; conditions: 50 μM megestrol acetate (Parent), 0.5 mg/mL pooled human liver microsomes with 1% water (no inhibitor)
[10] = biological target: T4, CYP2C8 (Homo sapiens, UniProt P10632); type: in vitro ADME; parameters: purchased BD Biosciences Discovery Labware, Woburn, Mass; host or cells: baculovirus-infected insect cells; conditions: LC/MS; 50 μM megestrol acetate (Parent), 20 pmol Human CYP2C8 + P450 Reductase + Cytochrome b5 SUPERSOMES
T4 sequence (P10632 1-490): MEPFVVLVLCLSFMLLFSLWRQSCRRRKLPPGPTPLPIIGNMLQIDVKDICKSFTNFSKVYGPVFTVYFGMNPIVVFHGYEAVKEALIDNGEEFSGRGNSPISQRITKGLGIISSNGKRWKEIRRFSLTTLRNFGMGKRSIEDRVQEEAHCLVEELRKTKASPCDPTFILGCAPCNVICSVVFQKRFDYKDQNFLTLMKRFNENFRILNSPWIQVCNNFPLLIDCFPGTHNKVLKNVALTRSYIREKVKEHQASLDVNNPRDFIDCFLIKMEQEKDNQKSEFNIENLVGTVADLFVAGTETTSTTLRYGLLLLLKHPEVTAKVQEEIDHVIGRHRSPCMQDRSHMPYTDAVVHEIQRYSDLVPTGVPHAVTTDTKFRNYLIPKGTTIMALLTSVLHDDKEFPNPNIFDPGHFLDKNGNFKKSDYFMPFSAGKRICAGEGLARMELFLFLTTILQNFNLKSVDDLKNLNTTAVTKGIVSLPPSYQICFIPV

[11] = biological target: T4, CYP2C8; conditions: 60 min, 100 μM, pH 7.4
Procedure: After a 5-minute pre-incubation, NRS was added to the incubation mixtures to initiate reactions. The final incubation volume was 0.5 mL. Incubations were continued for 60 minutes. […] In these experiments, each CYP isoform-selective substrate was prepared as 100× stock solutions in the solvent listed below.
Incubation reactions for positive controls were terminated by adding 0.5 mL methanol, except for paclitaxel (CYP2C8) which was terminated by adding 0.75 mL of acetonitrile.
Specific activity for each CYP isoform was calculated based on the formation of metabolite from each CYP isoform-selective substrate.

[12] = biological target: T5, CYP1A2 (Homo sapiens, UniProt P05177); conditions: 60 min, 5 μM, pH 7.4
T5 sequence (P05177 1-516): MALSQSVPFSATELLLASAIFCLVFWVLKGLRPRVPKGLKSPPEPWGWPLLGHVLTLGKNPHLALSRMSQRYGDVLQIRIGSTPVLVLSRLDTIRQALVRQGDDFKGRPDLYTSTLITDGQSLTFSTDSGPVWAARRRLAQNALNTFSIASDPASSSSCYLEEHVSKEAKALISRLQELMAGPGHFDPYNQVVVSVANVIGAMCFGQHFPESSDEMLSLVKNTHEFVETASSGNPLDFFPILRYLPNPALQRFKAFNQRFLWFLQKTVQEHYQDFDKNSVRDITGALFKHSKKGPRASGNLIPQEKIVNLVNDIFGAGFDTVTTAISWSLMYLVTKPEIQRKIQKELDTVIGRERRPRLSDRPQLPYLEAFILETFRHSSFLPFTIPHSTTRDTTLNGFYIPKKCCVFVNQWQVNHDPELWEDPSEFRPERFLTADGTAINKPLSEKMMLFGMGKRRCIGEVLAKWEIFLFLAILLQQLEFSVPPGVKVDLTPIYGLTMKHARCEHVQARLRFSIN

[13] = 0.5 mg/mL pooled human liver microsomes with 100 μM Diethyldithiocarbamate
[14] = 0.5 mg/mL pooled human liver microsomes with 1% water (no inhibitor)
[15] = 0.5 mg/mL pooled human liver microsomes with 100 μM Quercetin
[16] = 0.5 mg/mL pooled human liver microsomes with 0.1% DMSO (no inhibitor)

SMILES: N[C@@H]1C[C@H]1c1ccccc1 (racemic) [Tranylcypromine]
- CYP2A6 activity in presence of inhibitor [1]: 18.7±0.597 pmol metabolite/minute/mg protein
- Metabolite Formation Adjusted Individual [1]: 0.582 µM and 0.548 µM and 0.556 µM
- Metabolite Formation Adjusted Mean ± SD [1]: 0.562 ± 0.0179 µM
- Metabolite Formation Raw [1]: 0.582 µM and 0.5477 µM and 0.5561 µM
- Specific Activity Individual [1]: 19.4 pmol metabolite/min/pmol protein and 18.3 pmol metabolite/min/pmol protein and 18.5 pmol metabolite/min/pmol protein
- Specific Activity Mean ± SD [1]: 18.7 ± 0.597 pmol metabolite/min/pmol protein

SMILES: CCN(CC)C(=S)S [DDC, Diethyldithiocarbamate]
- Metabolite Formation Adjusted Mean ± SD [2]: 1.77 ± 0.0341 µM
- Specific Activity Mean ± SD [2]: 58.9 ± 1.14 pmol metabolite/min/pmol protein
- CYP2E1 activity in presence of inhibitor ([2]; microsomes): 58.9±1.14 pmol metabolite/minute/mg protein

SMILES: CC(=O)O[C@]1(C(C)=O)CC[C@H]2[C@@H]3C=C(C)C4=CC(=O)CC[C@]4(C)[C@H]3CC[C@@]21C [Parent]
- Area % [3, 13]: 90.95%
- Peak Area [3, 13]: 5225.10
- Area % [3, 14]: 59.79%
- Peak Area [3, 14]: 3520.60
- Area % [4]: 100.00%
- Peak Area [4]: 7120.60
- Area % [5]: 100.00%
- Peak Area [5]: 7274.10
- Area % [6]: 98.77%
- Peak Area [6]: 7320.20
- Area % [7]: 63.45%
- Peak Area [7]: 2924.70
- Area % [8, 15]: 99.11%
- Peak Area [8, 15]: 5734.70
- Area % [8, 16]: 69.53%
- Peak Area [8, 16]: 4151.30
- Area % [9]: 59.79%
- Peak Area [9]: 2932.40
- Area % [10]: 99.28%
- Peak Area [10]: 7474.90

SMILES: O=c1c(O)c(-c2ccc(O)c(O)c2)oc2cc(O)cc(O)c12 [Quercetin]
- Specific Activity Mean ± SD [11]: 2.64 ± 0.250 pmol metabolite/min/pmol protein
- CYP2C8 activity in presence of inhibitor ([11]; microsomes): 2.64±0.250 pmol metabolite/minute/mg protein

SMILES: Cc1nc2c([nH]1)c(=O)n(C)c(=O)n2Cc1ccco1 [Furafylline]
- Metabolite Formation Adjusted Mean ± SD [12]: 0.593 ± 0.0333 µM
